Laboratory results as given in BindingDB's records for doi:10.1021/jm201708h (Progen Pharmaceuticals, 2012).
pKi: −log10 of the molar value.

Target: T1, Heparanase (Homo sapiens, UniProt Q9Y251)
T1 sequence (Q9Y251 whole entry): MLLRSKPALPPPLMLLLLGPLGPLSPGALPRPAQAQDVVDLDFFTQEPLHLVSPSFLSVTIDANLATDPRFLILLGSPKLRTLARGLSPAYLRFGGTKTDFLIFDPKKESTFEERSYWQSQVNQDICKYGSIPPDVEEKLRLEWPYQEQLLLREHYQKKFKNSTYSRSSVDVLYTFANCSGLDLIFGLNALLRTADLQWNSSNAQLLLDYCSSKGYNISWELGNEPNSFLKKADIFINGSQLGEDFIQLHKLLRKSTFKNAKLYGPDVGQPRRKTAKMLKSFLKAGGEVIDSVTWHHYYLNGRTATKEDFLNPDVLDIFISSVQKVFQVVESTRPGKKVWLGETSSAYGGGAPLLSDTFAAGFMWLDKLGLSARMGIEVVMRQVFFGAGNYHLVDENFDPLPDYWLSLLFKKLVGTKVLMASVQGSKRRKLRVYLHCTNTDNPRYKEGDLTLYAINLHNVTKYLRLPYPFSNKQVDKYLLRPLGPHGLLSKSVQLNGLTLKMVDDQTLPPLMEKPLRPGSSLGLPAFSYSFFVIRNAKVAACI
Assay: Inhibition of human recombinant heparanase after 2 to 24 hrs by WST1 dye based fondaparinux assay

pKi: 8.10
SMILES: O=P(O)(O)OC[C@H]1O[C@H](O[C@@H]2[C@H](OS(=O)(=O)O)[C@@H](O[C@@H]3[C@H](OS(=O)(=O)O)[C@@H](O[C@@H]4[C@H](OS(=O)(=O)O)[C@@H](O[C@@H]5[C@@H](OS(=O)(=O)O)O[C@H](COS(=O)(=O)O)[C@@H](OS(=O)(=O)O)[C@@H]5OS(=O)(=O)O)O[C@H](COS(=O)(=O)O)[C@H]4OS(=O)(=O)O)O[C@H](COS(=O)(=O)O)[C@H]3OS(=O)(=O)O)O[C@H](COS(=O)(=O)O)[C@H]2OS(=O)(=O)O)[C@@H](OS(=O)(=O)O)[C@@H](OS(=O)(=O)O)[C@@H]1OS(=O)(=O)O [PI-88]
